According to PMC7433010, “Exploration of multi‐target effects of 3‐benzoyl‐5‐hydroxychromen‐2‐one in Alzheimer’s disease cell and mouse models” (Aging Cell, 2020):

What was measured:
Format in all cases: cell-based, human
[1] = test system: ΔK280 TauRD‐DsRed; assay: Western blot of soluble ΔK280 TauRD‐DsRed in SH‐SY5Y cells; conditions: 1 µM, not significant
Protocol: (§1) To knock down CREB expression in ∆K280 TauRD-DsRed SH-SY5Y cells, lentiviral short hairpin RNA (shRNA) targeting CREB (TRCN0000226466), NRF2 (TRCN0000007558), and a negative control scrambled (TRC2.Void) were obtained from National RNAi Core Facility, IMB/GRC, Academia Sinica, Taipei, Taiwan. On day 1, cells were plated on 6-well plates (for protein analysis) or 24-well plates (for neurite outgrowth analysis) in the presence of retinoic acid as described. On the second day, the cells were infected with lentivirus (multiplicity of infection: 3) in medium with polybrene (8 µg/mL; Sigma-Aldrich). […] On day 9, the cells were collected for NRF2, CREB, pCREB, and cleaved CASP3 protein analysis or analyzed for neurite outgrowth as described.
(§2) Total proteins from ∆K280 TauRD-DsRed SH-SY5Y cells were obtained using a RIPA buffer containing 50 mM Tris-HCl (pH8.0), 150 mM NaCl, 2 mM EDTA (pH8.0), 50 mM NaF, 0.1% SDS, 0.5% sodium deoxycholate, 1% NP40, and a protease inhibitor cocktail (Sigma-Aldrich). […] Protein concentrations were determined using a protein assay kit (Bio-Rad, Hercules, CA, USA), with albumin as a standard. […] Subsequently, immune complexes were detected using a horseradish peroxidase-conjugated goat anti-mouse or goat anti-rabbit IgG antibody (1:5000; GeneTex, Irvive, CA, USA) and a chemiluminescent substrate (Millipore).

[2] = test system: pCREB (S133); assay: Western blot of pCREB (S133) in ∆K280 TauRD‐DsRed SH‐SY5Y cells; conditions: 1 µM; induced untreated 78%, uninduced 100%
Protocol: as §1, §2

[3] = test system: pERK1/2 (T202/Y204); assay: Western blot of pERK1/2 (T202/Y204) in ∆K280 TauRD‐DsRed SH‐SY5Y cells; conditions: induced untreated 90%, uninduced 100%
Protocol: Total proteins from ∆K280 TauRD-DsRed SH-SY5Y cells were obtained using a RIPA buffer containing 50 mM Tris-HCl (pH8.0), 150 mM NaCl, 2 mM EDTA (pH8.0), 50 mM NaF, 0.1% SDS, 0.5% sodium deoxycholate, 1% NP40, and a protease inhibitor cocktail (Sigma-Aldrich). After sonication and sitting on ice for 20 min, the lysates were centrifuged at 14,000 × g for 30 min at 4°C. Protein concentrations were determined using a protein assay kit (Bio-Rad, Hercules, CA, USA), with albumin as a standard. Total proteins (20 µg) were electrophoresed on 10% or 12% SDS-polyacrylamide gel and transferred onto polyvinylidene difluoride (PVDF) membranes (Sigma-Aldrich) through reverse electrophoresis. […] Subsequently, immune complexes were detected using a horseradish peroxidase-conjugated goat anti-mouse or goat anti-rabbit IgG antibody (1:5000; GeneTex, Irvive, CA, USA) and a chemiluminescent substrate (Millipore).
Figure S4. ΔK280 TauRD-DsRed SH-SY5Y cells. […] On day 9, neurite outgrowth and caspase 3 activity were measured. In addition, expression of HSPB1, NRF2, and CREB pathways were assessed. (b) Relative AKT, pAKT, ERK, and pERK protein levels analyzed through immunoblotting. […]

O=C(c1ccccc1)c1cc2c(O)cccc2oc1=O [LM‐031, 3‐benzoyl‐5‐hydroxychromen‐2‐one]
soluble TauRD‐DsRed protein level ([1]; CREB‐specific shRNA‐infected cells, untreated 86%): 104% | soluble TauRD‐DsRed protein level ([1]; NRF2‐specific shRNA‐infected cells, untreated 82%): 103% | pCREB (S133) protein level [2]: 124% | pERK1/2 (T202/Y204) expression level [3]: 117%
